Experimental data taken from patent US20030082678A1, “Methods and compositions for regulating body weight in bovine species” (priority 2001, published 2003).
Where “and” joins values, the source holds several entries; their conditions need not be identical. Identical values can stand only once. Ends that are not written are not given here.

Assays:
bovine MC4-R = target: T1, bovine MC4-R (Bos taurus, UniProt Q9GLJ8); assay: CRE-luciferase reporter assay in human embryonic kidney 293 cells transiently co-transfected with bovine MC4-R; assay type: cell-based; conditions: for Luciferase Activity: 18 hrs, transiently transfected human embryonic kidney 293 cells
T1 construct: expressed in transfected cells; host or cells: human embryonic kidney 293 cells (ATCC CRL 1573), transient co-transfection of pcDNA3.1-bMC4R with the pGL2-promoter/CRE luciferase reporter
Experimental: The phagemid pBluescript-bMC4-R (10 μg) containing a full-length (1.9 kb) bovine MC4-R cDNA (SEQ ID NO:1) was digested using restriction endonucleases EcoRI (20 units, Gibco-BRL) and XhoI (20 units, Gibco-BRL) at 37° C. for 1 hr following the supplier's instructions. The resulting 1.9 kb bovine MC4-R cDNA fragment was then subcloned into the mammalian cell expression plasmid pcDNA3.1(+) (Invitrogen, Carlsband, Calif.) following standard cloning procedures (Sambrook et al., 1989, Molecular Cloning, A Laboratory Manual, Second Edition, Cold Spring Harbor Laboratory Press). The resulting bovine MC4-R expression plasmid, pcDNA3.1-bMC4R, was then used in conjunction with a reporter plasmid, pGL2-promoter/CRE (cyclic AMP activated transcription binding protein response element), to transiently co-transfect human embryonic kidney 293 cells (ATCC CRL 1573) using the LipofectAMINE PLUS reagent kit (Gibco-BRL, catalog no. 10964-013) following the supplier's instructions.
The pGL2-promoter/CRE plasmid, containing tandem cAMP activated transcription binding protein response elements from the rat somatostatin gene (Vallejo, et al., 1992, J. Biol. Chem. 267(18):12868-12875) and human chorionic gonadotropin (hCG) gene (Deutsch, et al., 1987, J. Biol. Chem. 262(25):12169-12174), was prepared following standard cloning procedures (Sambrook et al., supra). In brief, the plasmid was constructed by inserting a double stranded oligonucleotide linker, CRE-2 (SEQ ID NO:22), containing the rat somatostatin CRE sequence (5′-[…]-3′; SEQ ID NO:20), the human chorionic gonadotropin (hCG) CRE sequence (5′-AAATTGACGTCATGGTAA-3′; SEQ ID NO:21), and MluI and BglII cohesive ends, into the MluI and BglII sites, respectively, of plasmid pGL2-promoter (Promega, Madison, Wis., catalog no. E1631). The CRE-2 linker had the structure:
The CRE-2 oligonuceotide linker was prepared by first synthesizing the CREA and CREB oligonucleotides, including the MluI and BglII cohesive ends, using a DNA synthesizer Model 370 from PE-Biosystems (Foster City, Calif.). […]

[1] = target: bovine melanocortin 4 receptor protein (MC4-R) (bovine); assay: cell-based or functional assay

T1 sequence (Q9GLJ8 whole entry): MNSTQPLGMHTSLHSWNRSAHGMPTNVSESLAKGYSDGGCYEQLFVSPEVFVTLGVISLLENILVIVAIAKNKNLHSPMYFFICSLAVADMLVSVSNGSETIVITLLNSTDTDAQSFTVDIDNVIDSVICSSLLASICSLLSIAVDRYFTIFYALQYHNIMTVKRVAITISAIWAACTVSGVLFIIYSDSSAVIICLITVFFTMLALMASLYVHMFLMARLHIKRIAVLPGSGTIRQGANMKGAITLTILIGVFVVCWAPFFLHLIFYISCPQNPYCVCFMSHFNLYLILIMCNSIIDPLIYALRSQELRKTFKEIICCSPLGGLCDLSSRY

| Molecule | Activation of cloned bovine MC4-R expressed in 293 cells (bovine MC4-R; human embryonic kidney 293 cells) | Luciferase Activity (bovine MC4-R; α-MSH 1 nM) | Luciferase Activity (bovine MC4-R; α-MSH 10 nM) | Luciferase Activity (CRE-luciferase reporter, 293 cells), 0 nM α-MSH (baseline without ligand) [1] | Luciferase Activity (CRE-luciferase reporter, 293 cells), 1 nM α-MSH [1] | Luciferase Activity (CRE-luciferase reporter, 293 cells), 10 nM α-MSH [1] |
| --- | --- | --- | --- | --- | --- | --- |
| α-MSH | activated | 24.80 and 26.67 | 35.13 and 37.13 | – | – | – |
| SYSMEHFRWGKPV (peptide, UniProt P01189 138-150, looked up, ends and bridges not checked) [human α-MSH] | – | – | – | 8.19 and 7.78 | 24.8 and 26.7 | 35.1 and 37.1 |
